The nature of this data set: Measurement of Δλmax (UV-Vis absorption spectra in 20.0% 1,2-hexanediol aqueous solution and in water). Type of data set: physicochemical. To be noted: for λmaxD: maximum absorption wavelength in 20.0% by mass aqueous solution of 1,2-hexanediol; for λmaxD / λmaxW: coloring material 0.002 to 0.005%; for λmaxW: maximum absorption wavelength in ion-exchange water; for Δλmax: λmaxD−λmaxW. An excerpt:
Specifically, the ink according to the present invention contains a first coloring material and a second coloring material satisfying the following conditions. […] Further, the sum of the Δλmax1 and the Δλmax2 needs to be 35.0 or less. λmax refers to a maximum absorption wavelength in the visible region (380 to 750 nm) in a UV-Vis absorption spectrum of a coloring material, and can be measured using a spectrophotometer.
In a coloring material in which an associating state and a non-associating state are concurrently present, the absorption spectrum has a plurality of maximal-absorption wavelengths in some cases. Then, respective peak shapes (heights) at the maximal-absorption wavelengths representing the associating state and the non-associating state vary depending on a liquid medium to be used in some cases. The maximum absorption wavelength in the present invention means the following. That is, even in the case where a maximum absorption wavelength in an absorption spectrum in 20.0% by mass aqueous solution of 1,2-hexanediol shifts based on an absorption spectrum in water, a peak originated from a maximum absorption wavelength in water is taken as the maximum absorption wavelength. […] In the present invention, since it is important to consider the shift of a wavelength giving a highest absorbance, a maximum absorption wavelength in 20.0% by mass aqueous solution of 1,2-hexanediol is considered to be a maximal-absorption wavelength on a larger wavelength side, which is a peak originated from a maximum absorption wavelength in water.
For each coloring material, the difference Δλmax (=λmaxD−λmaxW) between a maximum absorption wavelength (λmaxD) in a 20.0% by mass aqueous solution of 1,2-hexanediol and a maximum absorption wavelength (λmaxW) in water in UV-Vis absorption spectra was measured. λmaxD and λmaxW were measured by diluting each coloring material by using a 20.0% by mass aqueous solution of 1,2-hexanediol or ion-exchange water so that the content of the coloring material became 0.002 to 0.005%. The measurement condition is shown below. Then, the value Δλmax=λmaxD−λmaxW was determined from the measurement. Here, the unit of λmax is “nm.”
Spectrophotometer: a self-recording spectrophotometer (trade name “U-3300,” made by Hitachi, Ltd.)
Measurement cell: 1-cm quartz cell
Sampling interval: 0.1 nm
Scanning speed: 30 nm/min

In the case of `Cc1ccc(S(=O)(=O)Nc2cc(S(=O)(=O)[O-])cc3cc(S(=O)(=O)[O-])c(N=Nc4cc(Cl)ccc4Oc4ccccc4)c(O)c23)cc1.[Na+].[Na+]` [C.I. Acid Red 249], the λmaxD turned out to be 520.0 nm, the λmaxW is 524.0 nm and the Δλmax is on record as −4.0 nm.

As for `O=C(O)c1nn(-c2ccc(S(=O)(=O)O)cc2)c(O)c1N=Nc1ccc(S(=O)(=O)O)cc1` [C.I. Acid Yellow 23], the λmaxD was found to be 430.5 nm, the λmaxW came out at 427.0 nm and the Δλmax is listed as 3.5 nm.

`COc1cc(N=Nc2cccc(S(=O)(=O)O)c2)ccc1NC(=O)Nc1ccc(N=Nc2cccc(S(=O)(=O)O)c2)cc1OC` [C.I. Direct Yellow 132] came in with a λmaxD of 411.0 nm, a λmaxW of 405.5 nm and a Δλmax of 5.5 nm.

The compound `Nc1cc2c(O)c(N=Nc3ccc(N=Nc4ccc(S(=O)(=O)[O-])cc4)c4ccc(S(=O)(=O)[O-])cc34)c(S(=O)(=O)[O-])cc2cc1S(=O)(=O)[O-].[Na+].[Na+].[Na+].[Na+]` [C.I. Food Black 2] gave a λmaxD of 595.0 nm, a λmaxW of 585.5 nm and a Δλmax of 9.5 nm.

For the compound `Cc1c(C#N)c(Nc2ccc(S(=O)(=O)O)cc2)nc(Nc2ccc(S(=O)(=O)O)cc2)c1N=Nc1sc(N=Nc2ccccc2C#N)c(-c2ccc(Nc3nc(NCCS(=O)(=O)O)nc(Nc4cc(S(=O)(=O)O)ccc4S(=O)(=O)O)n3)cc2)c1C#N` [black coloring material 1], the λmaxD stood at 630.5 nm, the λmaxW is recorded as 605.5 nm and the Δλmax came to 25.0 nm.

Compound `Cc1c(C#N)c(Nc2ccc(S(=O)(=O)O)cc2)nc(Nc2ccc(S(=O)(=O)O)cc2)c1N=Nc1nc(-c2ccc3ccccc3c2)c(N=Nc2cc(S(=O)(=O)O)c3cc(S(=O)(=O)O)cc(S(=O)(=O)O)c3c2)s1` [black coloring material 4] gave a λmaxD of 604.0 nm, a λmaxW of 604.0 nm and a Δλmax of 0.0 nm.

Take `CCc1cc(C)c(S(=O)(=O)O)c(CC)c1Nc1nc(N(c2nc3ccc(S(=O)(=O)O)cc3s2)c2c(CC)cc(C)c(S(=O)(=O)O)c2CC)cc(C)c1N=Nc1c(C#N)c(C(C)(C)C)nn1-c1nc2ccc(S(=O)(=O)O)cc2s1` [magenta coloring material 1]: the λmaxD is 559.5 nm, the λmaxW is reported as 555.0 nm and the Δλmax worked out at 4.5 nm.

In turn, `Cn1c(=O)c(C(=O)c2cccc(S(=O)(=O)O)c2)c2c3c(c(Nc4cc(Nc5nc(NCCNc6nc(Nc7cc(Nc8ccc9c%10c8C(=O)c8ccccc8-c%10c(C(=O)c8cccc(S(=O)(=O)O)c8)c(=O)n9C)c(S(=O)(=O)O)cc7S(=O)(=O)O)nc(Oc7ccc(S(=O)(=O)O)cc7)n6)nc(Oc6ccc(S(=O)(=O)O)cc6)n5)c(S(=O)(=O)O)cc4S(=O)(=O)O)ccc31)C(=O)c1ccccc1-2` [magenta coloring material 2] showed a λmaxD of 512.0 nm, a λmaxW of 508.5 nm and a Δλmax of 3.5 nm.

The compound `CC(C)(C)c1nn(-c2cc(C(=O)O)cc(C(=O)O)c2)c(N)c1N=Nc1nnc(SCCSc2nnc(N=Nc3c(C(C)(C)C)nn(-c4cc(C(=O)O)cc(C(=O)O)c4)c3N)s2)s1` [yellow coloring material 1] gave a λmaxD of 451.5 nm, a λmaxW of 427.5 nm and a Δλmax of 24.0 nm.

In turn, `Cc1cc(Nc2nc(NCCS(=O)(=O)O)nc(Nc3ccc(N=Nc4ccc(N=Nc5ccc(S(=O)(=O)O)cc5)cc4S(=O)(=O)O)c(C)c3)n2)ccc1N=Nc1ccc(N=Nc2ccc(S(=O)(=O)O)cc2)cc1S(=O)(=O)O` [yellow coloring material 3] registered a λmaxD of 408.0 nm, a λmaxW of 417.0 nm and a Δλmax of −9.0 nm.

In turn, `COc1cc(N=Nc2cccc(S(=O)(=O)O)c2)ccc1Nc1nc(NCCS(=O)(=O)O)nc(Nc2ccc(N=Nc3cccc(S(=O)(=O)O)c3)cc2OCCCS(=O)(=O)O)n1` [yellow coloring material 4] gave a λmaxD of 382.0 nm, a λmaxW of 391.5 nm and a Δλmax of −9.5 nm.

C.I. Direct Yellow 86 had a λmaxD of 399.0 nm, a λmaxW of 380.0 nm and a Δλmax of 19.0 nm.

The values are drawn from patent US8992674B2, “Ink, ink cartridge and ink jet recording method” (Canon Kabushiki Kaisha, priority 2012, dated 2015).
